Reference: ChEMBL document CHEMBL4665740, “Discovery of noscapine derivatives as potential β-tubulin inhibitors” (Bioorg Med Chem Lett, 2020)
The source made the active and inactive calls. The rule behind the calls is not given here.

Experiments:
[1] = test system: MCF7; test: Cytotoxicity against human MCF7 cells assessed as mortality at 20 uM after 48 hrs by MTT assay relative to control; type: functional
[2] = test system: MCF7; test: Cytotoxicity against human MCF7 cells assessed as mortality at 20 uM after 48 hrs by MTT assay; type: functional, cell-based
[3] = target: Tubulin beta; test: Binding affinity to CM5 chip immobilized beta tubulin (unknown origin) assessed as thermodynamic constants by SPR assay; type: protein assay, Homo sapiens

SMILES	Activity [1] [%]	Activity [2]	Kd [3] [nM]
CCC(O)Cn1cc(CN2CCc3cc4c(c(OC)c3[C@@H]2[C@H]2OC(=O)c3c2ccc(OC)c3OC)OCO4)nn1 (some centres not stated)	60	–	–
COc1ccc2c(c1OC)C(=O)O[C@@H]2[C@H]1c2c(c(Br)c3c(c2OC)OCO3)CCN1Cc1cn(CC(C)(C)O)nn1	–	Active	–
COc1ccc(-n2cc(CN3CCc4c(Br)c5c(c(OC)c4[C@@H]3[C@H]3OC(=O)c4c3ccc(OC)c4OC)OCO5)nn2)cc1OC	–	Active	–
COc1ccc2c(c1OC)C(=O)O[C@@H]2[C@H]1c2c(cc3c(c2OC)OCO3)CCN1Cc1cn(CC(C)(C)O)nn1	–	Active	–
COc1ccc2c(c1OC)C(=O)O[C@@H]2[C@H]1c2c(cc3c(c2OC)OCO3)CCN1C [NOSCAPINE]	20	–	579
COc1ccc2c(c1OC)C(=O)O[C@@H]2[C@H]1c2c(c(Br)c3c(c2OC)OCO3)CCN1Cc1cn(-c2ccc(Br)cc2)nn1	60	–	36.9
COc1ccc2c(c1OC)C(=O)O[C@@H]2[C@H]1c2c(c(Br)c3c(c2OC)OCO3)CCN1Cc1cn(-c2ccc(Cl)c(Cl)c2)nn1	–	Active	374.3
COc1ccc2c(c1OC)C(=O)O[C@@H]2[C@H]1c2c(cc3c(c2OC)OCO3)CCN1Cc1cn(Cc2ccccc2)nn1	60	–	133
COc1ccc2c(c1OC)C(=O)O[C@@H]2[C@H]1c2c(cc3c(c2OC)OCO3)CCN1Cc1cn(-c2ccc(F)cc2)nn1	–	Active	21.5
CCC(O)Cn1cc(CN2CCc3c(Br)c4c(c(OC)c3[C@@H]2[C@H]2OC(=O)c3c2ccc(OC)c3OC)OCO4)nn1 (some centres not stated)	–	Active	132
COc1ccc2c(c1OC)C(=O)O[C@@H]2[C@H]1c2c(c(Br)c3c(c2OC)OCO3)CCN1Cc1cn(-c2ccc(F)cc2)nn1	–	Active	–
